# Literature values as cited in patent publication US20250152701A1, “NKT CELL LIGAND-CONTAINING LIPOSOME COMPOSITION” (RIKEN, priority 2022, published 2025).
# Conditions: Non Patent Literature 6
structure (smiles),measurement,value
CCCCCCCCCCCCCCCCCCCCCCCCCC(=O)N[C@@H](CO[C@H]1OC(CO)[C@H](O)C(O)C1O)[C@H](O)[C@H](O)CCCCCCCCCCCCCC (stereo partly shown) [KRN7000],anti-tumor activity,extremely strong anti-tumor activity
